One test deals with FKBP12 (Homo sapiens, UniProt P62942). In words: competitive fluorescence polarization assay, FKBP12. It counts as binding. The conditions noted are these: for binding to FKBP12 (in words): fluorescence polarization assay. Background: Polarisation of emitted light reports the rotation of a fluorescent probe.
In test [1] the target is T1, FKBP51FK1 (Homo sapiens, UniProt Q13451).
T1 sequence (Q13451 42-130 limits assumed): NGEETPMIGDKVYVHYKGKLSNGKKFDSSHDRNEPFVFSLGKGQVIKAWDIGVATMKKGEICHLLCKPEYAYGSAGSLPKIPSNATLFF
Briefly: competitive fluorescence polarization assay, FKBP51FK1. The format is binding. How it is done:
Table S1. Ki values were determined by a competitive fluoresc ence polarization assay.
4.1 Binding curves of 13a, c and d […]

Another test has as its target T2, FKBP52FK1 (Homo sapiens, UniProt Q02790).
T2 sequence (Q02790 50-138 limits assumed): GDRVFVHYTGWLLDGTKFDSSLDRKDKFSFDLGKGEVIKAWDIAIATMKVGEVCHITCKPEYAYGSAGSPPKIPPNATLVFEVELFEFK
Briefly: competitive fluorescence polarization assay, FKBP52FK1. The format is binding. The conditions noted are these: Table 1 compounds tested up to 80 μM.

The target of another test is FKBP12.6 (Homo sapiens, UniProt P68106). In words: competitive fluorescence polarization assay, FKBP12.6. The conditions noted are these: for binding to FKBP12.6 (in words): fluorescence polarization assay. It counts as binding.
Test [2] has as its system IKKα phosphorylation in SIM-A9 cells. Briefly: IKKα inhibition in SIM-A9 cells (Western blot). It counts as cell-based, murine. How it is done: We next explored if the macrocyclic ligands could interfere with the cellular functions of FKBP51. We therefore treated SIM‐A9 cells, which were recently discovered as a SAFit‐sensitive cellular model for stress‐mediated secretory autophagy. ^[24] […] (Figure 2 F and S6C). […]
(§1) 5.2 IKKα inhibition in SIM-A9 cells
(§2) Cell culture and treatments
(§3) Murine microglia SIM-A9 cells were cultured at 37 °C, 5% CO2 in Dulbecco's Modified Eagle Medium (DMEM) high glucose with GlutaMAX (Thermo Fisher Scientific, 10566016), supplemented with 1 mM sodium pyruvate (Thermo Fisher Scientific, 11360-070), 10% fetal bovine serum (PAN Biotech, P30-8500), and 1% antibiotic-antimycotic (Thermo Fisher Scientific, 15240-062).
(§4) For the preparation of whole-cell lysates, confluent SIM-A9 cell cultures treated with the indicated compounds for 16 h in the above mentioned growth medium, were washed two times with ice-cold DPBS (Thermo Fisher Scientific, 14190-144) and lysed in an appropriate volume of RIPA buffer (Thermo Fisher Scientific, 89901), freshly supplemented with 1x cOmplete™ EDTA-free protease inhibitor cocktail (Roche, 4693132001) and 1x PhosSTOP™ phosphatase inhibitor cocktail (Roche, 4906837001) for 20 min on ice.
(§5) Subsequently, samples were centrifuged for 10 min at 4°C at 13000 rpm. The resulting supernatants were transferred to new 1.5 ml reaction tubes and prepared for separation with an SDS-PAGE system and analyzed by immunoblotting.
(§6) SDS-PAGE and immunoblotting
Separation of proteins was performed with the Criterion™ Vertical Electrophoresis Cell System (Bio-Rad, 1656001) on 4–20% Criterion™ TGX™ Precast Midi Protein Gels (Bio-Rad, 5671095). Immunoblotting was performed with the Trans-Blot Turbo Transfer System (Bio-Rad, 1704150) on 0.2 µm PVDF Trans-Blot Turbo Transfer Membranes (Bio-Rad, 1704157). For immunodetection, membranes were placed in TBS, supplemented with 0.05% Tween (Sigma-Aldrich, P9416) and 5% non-fat milk (Carl Roth, T145.1) for 1 h at RT and then incubated with the primary antibody diluted in TBS-T overnight at 4°C. Following primary antibodies were used:
Phospho-IKKα S176/phospho-IKKβ S177 (1:1000, Cell Signaling Technology, 2078), IKKα (1:1000, Cell Signaling Technology, 1682) and GAPDH (1:1000, Cell Signaling Techology, 5174).
Then, immunoblots were washed and probed with horseradish peroxidase- conjugated secondary antibody (1:10000, Cell Signaling Technology, 7074) for 1 h at RT. Immunoreactive protein bands were visualized using Clarity Western ECL Substrate (Bio-Rad, 1705061) or Clarity Max Western ECL Substrate (Bio-Rad, 1705062). Determination of the band intensities was performed with […]
For orientation: Immunoblotting shows a protein as a band on a membrane.

Test [3] deals with phorbol/ionomycin-induced IL8 secretion in Jurkat cells. Briefly: immunostimulation/suppression assay in Jurkat cells (IL8 secretion). The conditions noted are these: IL8 ELISA; for effect on phorbol/ionomycin-induced IL8 secretion (compound on its own): 50 ng/ml PMA and 750 ng/ml Ionomycin, six hours. It counts as cell-based, human. How it is done:
Importantly, unlike the pan‐selective FKBP ligand [4.3.1]16h ^[21]
5.1 Immunostimulation/suppression assays in JURKAT cells
Figure S6A. Cellular analysis of compound FK[431]-16h in Jurkat cells
150 000 Jurkat cells were seeded in a 96 well plate in 180 µl and treated for 30 minutes with 13d or FK[431]-16h at the indicated […]
Cells were pelleted and supernatant collected and stored at -80°C. The IL8 content in the s upernatant was determined using the human IL8/CXCL8 DuoSet Elisa kit (RndSystems) according to manufacturers instructions . The sample volume of supernatant was adapted to 150 µl. Optical density wa s assessed using a Tecan Spark.
as §1, §2, §3, §4, §5, §6
Separation of proteins was performed with the Criterion™ Vertical Electrophoresis Cell System (Bio-Rad, 1656001) on 4–20% Criterion™ TGX™ Precast Midi Protein Gels (Bio-Rad, 5671095). […]

The target in test [4] is T1, FKBP51FK1. In words: isothermal titration calorimetry (ITC). It counts as binding. How it is done: 1. ITC of compounds 13a and 13d
Figure S1. A) Binding of compound 13a to FKBP51FK1 determined by isothermal titration calorimetry at 25 °C. A 20 µM solution FKBP51FK1 formulated in 20 mM
HEPES pH 8.0, 20 mM NaCl, 5% glycerol and 2% DMSO was placed in the sample cell of a PEAK-ITC instrument. The syringe was filled with a 200 µM solution of
13a formulated in the same buffer. After equilibration the compound was titrated into the sample cell by 12 injection s of 3 µl each. The obtained data was analyzed
Binding of compound 13d to FKBP51FK1 determined by isothermal titration calorimetry at 25 °C. A 13 µM solution FKBP51FK1 formulated in 20 mM HEPES pH
8.0, 20 mM NaCl, 5% glycerol and 2% DMSO was placed in the sample cell of a PEAK -ITC instrument. The syringe was filled with a 10 0 µM solution of 13d
formulated in the same buffer. After equilibration the compound was titrated into the sample cell by 12 injections of 3 µl each. The obtained data was analyzed using […]
For orientation: In ITC the heat of successive injections is recorded.

Test [5] has as its target T1, FKBP51FK1. The conditions noted are these: values derived from literature; read-out: FKBP51FK1 K i; cited from earlier work. An excerpt:
Table 1 Affinities of the macrocycles with amino acid containing linker determined by a competitive fluorescence polarization assay. | column: FKBP51FK1 / K i [μM]^[a]

The mark [6] stands for this setting: meta B ring substituent R6, read-out: FKBP51 Ki (Table S1).

The structures appear in SMILES notation. Like-named read-outs stand apart in the source and are kept apart here.

Chain of FKBP12 (P62942 whole entry): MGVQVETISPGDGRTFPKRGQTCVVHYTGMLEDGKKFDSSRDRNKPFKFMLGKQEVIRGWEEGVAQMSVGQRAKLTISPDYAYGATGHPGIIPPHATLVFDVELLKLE
Chain of FKBP12.6 (P68106 whole entry): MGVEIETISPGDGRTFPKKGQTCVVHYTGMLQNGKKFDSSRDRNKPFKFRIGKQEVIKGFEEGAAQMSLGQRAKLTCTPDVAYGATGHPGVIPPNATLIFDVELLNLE

`COc1cc2cc(c1)[C@@H](CCc1ccc(OC)c(OC)c1)OC(=O)[C@@H]1CCCCN1C(=O)[C@@H](C1CCCCC1)NC(=O)C(C)(C)NC(=O)CO2` [compound 26]: the “binding to FKBP12 (in words)” value at FKBP12 was “no binding”. The Ki at FKBP51FK1 [1] (setting [6]) was 390 nM. Also, the “binding to FKBP52FK1 (in words)” value on FKBP52FK1 is reported as “no binding”. For the same compound, the “binding to FKBP12.6 (in words)” value at FKBP12.6 is “no binding”.

`COc1ccc(CC[C@H]2OC(=O)[C@@H]3CCCCN3C(=O)[C@@H](C3CCCCC3)NC(=O)C(C)(C)NC(=O)COc3cc(O)cc2c3)cc1OC` [compound 25]: the “binding to FKBP12 (in words)” value on FKBP12 is reported as “no binding”. Moreover, on FKBP51FK1 [1] (setting [6]), the Ki was determined as 370 nM. Also, on FKBP52FK1, the “binding to FKBP52FK1 (in words)” value was “no binding”. Also, the “binding to FKBP12.6 (in words)” value at FKBP12.6 is on record as “no binding”.

For `COc1ccc(CC[C@H]2OC(=O)[C@@H]3CCCCN3C(=O)[C@@H](C3CCCCC3)NC(=O)C3(CC3)NC(=O)COc3cccc2c3)cc1OC` [13 d], the Ki on FKBP12 (competitive fluorescence polarization assay, >80 μM = highest measurable concentration before compound precipitation, ± = standard error from three independent measurements, read-out: FKBP12 K i) is greater than 80000 nM; at FKBP51FK1 [1] (setting [6]), 290 nM; on FKBP51FK1 [1] (± = standard error from three independent measurements [b] or error from two independent measurements [d], SEM, read-out: FKBP51FK1 K i) it was 400 ± 50 nM; on FKBP12.6 (competitive fluorescence polarization assay, >80 μM = highest measurable concentration before compound precipitation, ± = standard error from three independent measurements, read-out: FKBP12.6 K i), greater than 80000 nM. The “concentration at which apparent maximal inhibition of IKKα phosphorylation was already reached” value in test [2] (SIM-A9 cells, lowest tested concentration) is no more than 1 µM. The “inhibition of IKKα phosphorylation (in words)” value in test [2] (murine microglia SIM-A9 cells, 16 h treatment, Western blot, three (macrocycles) or six (SAFit) independent cellular assays) was “inhibited”. For the same compound, in test [3], the “effect on phorbol/ionomycin-induced IL8 secretion (compound on its own)” value is listed as “neither immunostimulatory nor immunosuppressive”. The “effect on the immunosuppressive activity of FK506” value in test [3] (30 minutes pretreatment, then 0.2 nM FK506, PMA/Ionomycin) is “did not block”. Also, the Kd on FKBP51FK1 [4] (25 °C, 20 mM HEPES pH 8.0, 20 mM NaCl, 5% glycerol, 2% DMSO, one-site binding model, mean ± SD from 3 independent experiments, SD, read-out: Kd-value for FKBP51FK1 by ITC) came out at 600 ± 100 nM; at FKBP51FK1 [4] (isothermal calorimetry, enthalpy-driven, read-out: K d for FKBP51 by ITC) it was 600 nM.

Take `C=CC[C@@H]1/C=C(\C)C[C@H](C)C[C@H](OC)[C@H]2O[C@@](O)(C(=O)C(=O)N3CCCC[C@H]3C(=O)O[C@H](/C(C)=C/[C@@H]3CC[C@@H](O)[C@H](OC)C3)[C@H](C)[C@@H](O)CC1=O)[C@H](C)C[C@@H]2OC` [FK506, reference compound]: the Ki at FKBP51FK1 [5] is 104 nM. Besides, in test [3], the “effect on phorbol/ionomycin-induced IL8 secretion (compound on its own)” value was “blocks”.

Source of the values: paper PMC8252719, “Macrocyclic FKBP51 Ligands Define a Transient Binding Mode with Enhanced Selectivity” (Angewandte Chemie (International Ed. in English), 2021).
